IC50 data for one compound are collected here from US8658668B2, “PI3 kinase/mTOR dual inhibitor” (Eli Lilly and Company, priority 2011, dated 2014).

Type in all cases: cell-based
For one assay, the system named is P70S6(pT389). Put plainly: AlphaScreen SureFire p-p70S6 kinase (Thr389) in U87MG cells. Conditions: Homo sapiens, U-87 MG, 1 h, n = 4, read-out: P70S6(pT389) Absolute IC50. As for the experimental part: This homogeneous assay format uses immuno-sandwich capture of the phosphorylated analyte and then detection with antibody-coated Alphascreen beads to generate an amplified signal.
Maintain U87MG cells in U87MG growth medium consisting of DMEM (GIBCO 11965-092) supplemented with 10% fetal bovine serum (FBS, GIBCO, 10091-141), 1% nonessential amino acids (GIBCO, 11140-050) and 1% sodium pyruvate (GIBCO, 11360-070). Harvest cells using standard cell culture procedures and then count using Vi-Cell. Plate 100 μL of U87MG cells in growth medium (50,000 cells/well) into Costar #3596 96 well plates and incubate overnight at 37° C., 5% CO2.
Incubate for one h at 37° C., then remove the medium and add 50 μL of 1× SureFire Lysis Buffer (TGR Biosciences SureFire® Kit component) to each well and incubate at room temperature for 10 min with gentle shaking Transfer 6 μL lysate and 10 μL reaction mixture (60 parts reaction buffer/10 parts activation buffer/1 part each of donor and acceptor beads, Perkin Elmer, 6760617R) to a 384 well proxiplate (Perkin Elmer, 6006280) for the p-p70S6 kinase (Thr389) and p-AKT(Ser473) assays. Seal the plate and incubate at RT for 4 h. […] Read the plates on a Perkin Elmer EnVision equipped with a TurboModule using standard AlphaScreen® settings (Ex680 nm and Em520-620 nm). […]

In assay [1] the test system is BXF 1218 human tumor xenograft cells. As to the kind of experiment: Oncotest tumor clonogenic assay, BXF 1218. The settings on record: colony formation, Bladder BXF 1218, transitional cell carcinoma, read-out: Absolute IC50.
In assay [2] the test system is LXFL 430 human tumor xenograft cells. As to the kind of experiment: Oncotest tumor clonogenic assay, LXFL 430. Conditions: colony formation, NSCLC LXFL 430, large cell lung carcinoma, pd, read-out: Absolute IC50.
For assay [3], the system named is MAXF 1384 human tumor xenograft cells. As to the kind of experiment: Oncotest tumor clonogenic assay, MAXF 1384. The settings on record: colony formation, Mammary MAXF 1384, adeno carcinoma, pd, read-out: Absolute IC50.
Assay [4] concerns OVXF 1353 human tumor xenograft cells. Put plainly: Oncotest tumor clonogenic assay, OVXF 1353. Conditions: colony formation, Ovary OVXF 1353, adeno carcinoma, pd, read-out: Absolute IC50.

Consider `CO[C@@H](C)Cn1c(=O)n(C)c2cnc3ccc(-c4cncc(C(C)(C)O)c4)cc3c21` [Example 1, 8-[5-(1-Hydroxy-1-methylethyl)pyridin-3-yl]-1-[(2S)-2-methoxypropyl]-3-methyl-1,3-dihydro-2H-imidazo[4,5-c]quinolin-2-one], for which the half-inhibitory concentration (IC50) in the assay on P70S6(pT389) was 10.6 nM; in assay [1] it was 48 nM; in assay [2] it was 56 nM; in assay [3], 243 nM; in assay [4], above 200 nM.
